What was measured:
rat nNOS [1] = molecular target: T1, rat nNOS (Rattus norvegicus (Rat), UniProt P29476); assay: Hemoglobin capture assay, Ki (Tables 11-12); conditions: ratio of Ki values
rat nNOS [2] = molecular target: T1, rat nNOS; assay: Oxyhemoglobin NO assay, Ki (Table 9); format: biochemical; conditions: for e/n: ratio Ki eNOS to Ki rat nNOS; for i/n: ratio Ki iNOS to Ki rat nNOS
rat nNOS [3] = molecular target: T1, rat nNOS; assay: Hemoglobin capture assay, Ki (Example 159); format: biochemical; conditions: for Selectivity n/i: rat nNOS vs murine iNOS
human nNOS [4] = molecular target: T2, human nNOS (Homo sapiens (Human), UniProt P29475); assay: Hemoglobin capture assay, Ki (Example 159); format: biochemical
human eNOS = human eNOS (Homo sapiens (Human), UniProt P29474); assay: Hemoglobin capture assay, Ki (Example 159); format: biochemical
bovine eNOS = bovine eNOS (Bos taurus (Bovine), UniProt P29473); assay: Hemoglobin capture assay, Ki (Example 159); format: biochemical
S. aureus UAMS1182 = assay: Effect of H2O2 and NOS inhibitors on S. aureus; format: cell-based, Staphylococcus aureus; conditions: for H2O2-mediated killing of S. aureus on co-treatment: 200 μM inhibitor + 5 mM H2O2; for S. aureus survival, inhibitor alone: 200 μM, WT and Δnos strains
bBiDomain = bBiDomain (Bacillus subtilis (strain 168), UniProt O34453); assay: bNOS activity inhibition with bBiDomain and YumC, nitrite by Griess reaction; conditions: for % nitrite: inhibitor 30 μM, NOHA 200 μM, 4 min, single time point
Chain of bBiDomain (O34453 other isoform, or with tags, fused parts or gaps): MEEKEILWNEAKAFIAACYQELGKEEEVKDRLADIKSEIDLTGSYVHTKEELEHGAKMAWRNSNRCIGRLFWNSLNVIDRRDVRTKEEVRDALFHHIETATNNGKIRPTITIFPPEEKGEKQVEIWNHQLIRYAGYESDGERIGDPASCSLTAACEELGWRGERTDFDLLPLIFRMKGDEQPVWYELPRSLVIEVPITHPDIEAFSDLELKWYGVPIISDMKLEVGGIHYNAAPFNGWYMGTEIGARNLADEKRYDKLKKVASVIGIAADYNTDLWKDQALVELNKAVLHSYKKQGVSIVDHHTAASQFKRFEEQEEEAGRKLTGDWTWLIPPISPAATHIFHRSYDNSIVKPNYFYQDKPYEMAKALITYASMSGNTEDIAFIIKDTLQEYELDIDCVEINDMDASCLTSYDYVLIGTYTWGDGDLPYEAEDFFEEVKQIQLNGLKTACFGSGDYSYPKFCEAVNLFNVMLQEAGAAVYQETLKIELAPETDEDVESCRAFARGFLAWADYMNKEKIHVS

[5] = Plasma pharmacokinetics and brain distribution in mice; conditions: for T1/2: i.v. 2 mg/kg
human nNOS [6] = molecular target: T2, human nNOS; assay: Oxyhemoglobin NO assay, Ki (Table 9); format: biochemical
CYP1A2 = CYP1A2 (Homo sapiens (Human), UniProt P05177); assay: CYP inhibition assay, human liver microsomes; conditions: 10 μM
Chain of CYP1A2 (P05177 whole entry): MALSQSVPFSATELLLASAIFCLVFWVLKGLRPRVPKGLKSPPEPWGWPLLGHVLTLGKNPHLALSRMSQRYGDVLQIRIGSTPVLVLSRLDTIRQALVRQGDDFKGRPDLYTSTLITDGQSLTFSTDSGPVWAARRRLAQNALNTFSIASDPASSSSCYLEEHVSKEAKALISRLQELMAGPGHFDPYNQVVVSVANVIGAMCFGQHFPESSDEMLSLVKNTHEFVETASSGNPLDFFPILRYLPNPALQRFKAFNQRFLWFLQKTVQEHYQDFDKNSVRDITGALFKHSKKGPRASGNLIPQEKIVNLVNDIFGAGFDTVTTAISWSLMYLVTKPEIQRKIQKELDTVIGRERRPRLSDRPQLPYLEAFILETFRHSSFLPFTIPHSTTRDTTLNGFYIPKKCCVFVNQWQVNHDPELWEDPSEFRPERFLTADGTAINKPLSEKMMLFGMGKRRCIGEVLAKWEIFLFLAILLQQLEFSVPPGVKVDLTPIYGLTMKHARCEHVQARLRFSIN

B. subtilis = assay: Effect of oxidative stress (ACR, H2O2) and NOS inhibitors on B. subtilis survival and growth; format: cell-based, Bacillus subtilis
bsNOS = bsNOS (Bacillus subtilis (strain 168), UniProt O34453); assay: Imidazole displacement, spectral binding constant KS; conditions: 50 μM H4B
Chain of bsNOS (O34453 whole entry): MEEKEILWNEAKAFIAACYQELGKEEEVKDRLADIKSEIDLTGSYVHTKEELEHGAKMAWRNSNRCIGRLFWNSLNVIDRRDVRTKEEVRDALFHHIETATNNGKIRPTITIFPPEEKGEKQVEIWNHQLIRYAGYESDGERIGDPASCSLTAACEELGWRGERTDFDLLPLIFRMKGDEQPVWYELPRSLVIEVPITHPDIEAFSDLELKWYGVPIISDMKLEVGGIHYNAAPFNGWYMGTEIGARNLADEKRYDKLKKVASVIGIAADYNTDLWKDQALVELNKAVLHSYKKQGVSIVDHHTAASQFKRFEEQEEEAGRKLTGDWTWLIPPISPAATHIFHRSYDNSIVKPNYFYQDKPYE

CYP2C8 = CYP2C8 (Homo sapiens (Human), UniProt P10632); conditions: 10 μM
Chain of CYP2C8 (P10632 whole entry): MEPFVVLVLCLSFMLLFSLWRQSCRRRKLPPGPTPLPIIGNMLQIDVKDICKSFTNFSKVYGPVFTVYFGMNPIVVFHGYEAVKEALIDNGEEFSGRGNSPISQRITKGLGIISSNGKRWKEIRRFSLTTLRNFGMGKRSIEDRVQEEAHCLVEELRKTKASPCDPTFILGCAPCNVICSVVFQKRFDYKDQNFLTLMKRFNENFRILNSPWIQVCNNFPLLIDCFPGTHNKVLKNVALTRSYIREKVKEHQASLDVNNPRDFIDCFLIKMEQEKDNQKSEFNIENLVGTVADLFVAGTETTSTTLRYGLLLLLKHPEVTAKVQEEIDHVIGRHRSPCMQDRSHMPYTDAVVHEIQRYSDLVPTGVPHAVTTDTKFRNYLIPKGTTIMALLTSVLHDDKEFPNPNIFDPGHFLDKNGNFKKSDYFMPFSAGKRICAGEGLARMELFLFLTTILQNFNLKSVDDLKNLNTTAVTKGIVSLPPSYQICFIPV

[7] = human, plasma, 4 h, 5 μM
in vitro = conditions: human, human plasma, pH 7.4

Row | Molecule | e/n (rat nNOS [2]) | i/n (rat nNOS [2]) | Ki (human nNOS [6]) | other results
1 | Cc1ccnc(CCc2cccc([C@H](N)Cc3cc(C)cc(N)n3)c2)c1 [Compound 5R, (R)-6-(2-Amino-2-(3-(2-(4-methylpyridin-2-yl)ethyl)phenyl)ethyl)-4-methylpyridin-2-amine] |  |  |  | e/n (rat nNOS [1]): 240; i/n (rat nNOS [1]): >22
2 | Cc1ccnc(CCc2cccc([C@@H](N)Cc3cc(C)cc(N)n3)c2)c1 [Compound 5S, (S)-6-(2-Amino-2-(3-(2-(4-methylpyridin-2-yl)ethyl)phenyl)ethyl)-4-methylpyridin-2-amine] |  |  |  | e/n (rat nNOS [1]): 363; i/n (rat nNOS [1]): >110
3 | CNCCN(C)c1cccc(CCc2cc(C)cc(N)n2)c1 [Compound 10a, N^1-(3-(2-(6-Amino-4-methylpyridin-2-yl)ethyl)phenyl)-N^1,N^2-dimethylethane-1,2-diamine] | 156 | 41 |  | 
4 | Cc1cc(N)nc(CCc2cccc(NCCN(C)C)c2)c1 [Compound 10b, N^1-(3-(2-(6-Amino-4-methylpyridin-2-yl)ethyl)phenyl)-N^2,N^2-dimethylethane-1,2-diamine] | 125 | 29 |  | 
5 | Cc1cc(N)nc(CCc2cccc(N(C)CCN)c2)c1 [Compound 10c, N^1-(3-(2-(6-Amino-4-methylpyridin-2-yl)ethyl)phenyl)-N^1-methylethane-1,2-diamine] | 172 | 47 |  | 
6 | Cc1cc(N)nc(CCc2cccc(N(C)CCCN)c2)c1 [Compound 10d, N^1-(3-(2-(6-Amino-4-methylpyridin-2-yl)ethyl)phenyl)-N-methylpropane-1,3-diamine] | 25 | 11 |  | 
7 | Cc1cc(N)nc(CCc2cncc(N3CCOCC3)c2)c1 [Compound 14c, 4-Methyl-6-(2-(5-morpholinopyridin-3-yl)ethyl)pyridin-2-amine] |  |  |  | Ki (rat nNOS [3]): 547 nM; Selectivity n/i (rat nNOS [3]): 21; Ki (human nNOS [4]): 862 nM; Selectivity n/e (human) (human nNOS [4]; human nNOS vs human eNOS): 49; Ki (human eNOS): 42600 nM
8 | COCCCNc1cncc(CCc2cc(C)cc(N)n2)c1 [Compound 14e, 6-(2-(5-(3-Methoxypropylamino)pyridin-3-yl)ethyl)-4-methylpyridin-2-amine] |  |  |  | Ki (rat nNOS [3]): 558 nM; Selectivity n/i (rat nNOS [3]): 13
9 | Cc1cc(N)nc(CCc2cncc(CCCN(C)C)c2)c1 [Compound 14k, 6-(2-(5-(3-(Dimethylamino)propyl)pyridin-3-yl)ethyl)-4-methylpyridin-2-amine] |  |  |  | Ki (bovine eNOS): 16600 nM; Ki (human nNOS [4]): 37 nM; Ki (human eNOS): 39500 nM
10 | Nc1ccc2ccc(CCNCCCc3cccc(F)c3)cc2n1 [Compound 19, reference compound] |  |  |  | H2O2-mediated killing of S. aureus on co-treatment (S. aureus UAMS1182): significantly increases the H2O2-mediated killing; S. aureus survival, inhibitor alone (S. aureus UAMS1182): reduced bacterial survival over time; Ki (bBiDomain): 69.7 nM; % nitrite (bBiDomain): 6.1%
11 | CNCCN(C)c1cc(CCc2cc(C)cc(N)n2)cc(C(F)(F)F)c1 [Compound 19a, N^1-(3-(2-(6-Amino-4-methylpyridin-2-yl)ethyl)-5-(trifluoromethyl)phenyl)-N^1,N^2-dimethylethane-1,2-diamine] | 238 | 122 |  | 
12 | CNCCN(C)c1cc(C#N)cc(CCc2cc(C)cc(N)n2)c1 [Compound 19c, 3-(2-(6-Amino-4-methylpyridin-2-yl)ethyl)-5-(methyl(2-(methylamino)ethyl)amino)benzonitrile] |  |  |  | T1/2 ([5]; brain): 24.80 h; T1/2 ([5]; plasma): 1.1 h; AUCinf ([5]; p.o. 10 mg/kg, plasma): 182.46 ng·h/mL
13 | CCNCCN(C)c1cc(C#N)cc(CCc2cc(C)cc(N)n2)c1 [Compound 21a] | 583.7 | 178.0 | 225 nM | 
14 | Cc1cc(N)nc(CCc2cc(C#N)cc(N(C)CCNC(C)C)c2)c1 [Compound 21b] | 320.1 | 361.5 | 357 nM | 
15 | Cc1cc(N)nc(CCc2cc(C#N)cc(N(C)CCNC3CC3)c2)c1 [Compound 21c] | 274.0 | 246.6 | 378 nM | 
16 | Cc1cc(N)nc(CCc2cc(C#N)cc(N(C)CCc3cccc(F)c3)c2)c1 [Compound 21d] |  | 33.7 |  | 
17 | Cc1cc(N)nc(CCc2cc(F)cc(NCCN(C)C)c2)c1 [Compound 23a, N^1-(3-(2-(6-Amino-4-methylpyridin-2-yl)ethyl)-5-fluorophenyl)-N^2,N^2-dimethylethane-1,2-diamine] | 136.9 | 47.3 | 758 nM | 

Row | Molecule | e/n (rat nNOS [2]) | i/n (rat nNOS [2]) | Ki (human nNOS [6]) | other results
18 | CCNCCN(C)c1cc(F)cc(CCc2cc(C)cc(N)n2)c1 [Compound 23b, N^1-(3-(2-(6-Amino-4-methylpyridin-2-yl)ethyl)-5-fluorophenyl)-N^2-ethyl-N^1-methylethane-1,2-diamine] | 558.4 | 199.4 | 194 nM | 
19 | Cc1cc(N)nc(CCc2cc(F)cc(N(C)CCNC3CC3)c2)c1 [Compound 23c, N^1-(3-(2-(6-Amino-4-methylpyridin-2-yl)ethyl)-5-fluorophenyl)-N^2-cyclopropyl-N^1-methylethane-1,2-diamine] | 124.3 | 217.8 | 243 nM | 
20 | CCN(CCNC)c1cc(F)cc(CCc2cc(C)cc(N)n2)c1 [Compound 23d, N^1-(3-(2-(6-Amino-4-methylpyridin-2-yl)ethyl)-5-fluorophenyl)-N^1-ethyl-N^2-methylethane-1,2-diamine] | 93.2 | 109.6 | 139 nM | 
21 | CNCCN(c1cc(F)cc(CCc2cc(C)cc(N)n2)c1)C1CC1 [Compound 23e, N^1-(3-(2-(6-amino-4-methylpyridin-2-yl)ethyl)-5-fluorophenyl)-N^1-cyclopropyl-N^2-methylethane-1,2-diamine] | 140.9 | 148.7 | 238 nM | 
22 | Cc1cc(N)nc(CCc2cc(F)cc(NCc3cccc(Cl)c3)c2)c1 [Compound 23f, 6-(3-((3-Chlorobenzyl)amino)-5-fluorophenethyl)-4-methylpyridin-2-amine] | 262.0 | 354.1 | 2070 nM | 
23 | Cc1cc(N)nc(CCc2cc(F)cc(NCc3cccnc3)c2)c1 [Compound 23g, 6-(3-Fluoro-5-((pyridin-3-ylmethyl)amino)phenethyl)-4-methylpyridin-2-amine] | 10.0 | 10.7 | 255 nM | 
24 | Cc1cc(N)nc(CCc2cc(F)cc(N3CCNCC3)c2)c1 [Compound 23h, 6-(3-Fluoro-5-(piperazin-1-yl)phenethyl)-4-methylpyridin-2-amine] | 82.8 | 60.2 | 161 nM | 
25 | Cc1cc(N)nc(CCc2cc(F)cc(NC3CCNCC3)c2)c1 [Compound 23i, 6-(3-Fluoro-5-(piperidin-4-ylamino)phenethyl)-4-methylpyridin-2-amine] | 40.2 | 110.9 | 384 nM | 
26 | Cc1cc(N)nc(-c2ccc(CNCCc3cccc(F)c3)cc2)c1 [Compound 27, 6-(4-(((3-Fluorophenethyl)amino)methyl)phenyl)-4-methylpyridin-2-amine] |  |  |  | H2O2-mediated killing of S. aureus on co-treatment (S. aureus UAMS1182): significantly increases the H2O2-mediated killing; S. aureus survival, inhibitor alone (S. aureus UAMS1182): reduced bacterial survival over time; Ki (bBiDomain): 502 nM; % nitrite (bBiDomain): 13.2%
27 | COCCCC/C(=N\OCCN)c1ccc(C(F)(F)F)cc1 [Fluvoxamine, reference compound] |  |  |  | % inhibition CYP1A2 (CYP1A2): 95%
28 | N=C(NCCC[C@H](N)C(=O)O)N[N+](=O)[O-] [L-NNA, N^ω-nitro-L-arginine] |  |  |  | % survival of wt B. subtilis with ACR (B. subtilis; NOS inhibitor + ACR, 30 min): bacterial % survival decreased in the presence of ACR; % survival of wt B. subtilis with H2O2 (B. subtilis; NOS inhibitor + H2O2, 30 min): trivial effects on bacterial survival; % nitrite (bBiDomain): 40.9±5.3%
29 | NC(=NCCC[C@H](N)C(=O)O)NO [NOHA, N-omega-hydroxy-L-arginine] |  |  |  | fold difference in binding (KS) in presence vs absence of H4B (bsNOS): 1.2 fold
30 | O=c1c(O)c(-c2ccc(O)c(O)c2)oc2cc(O)cc(O)c12 [Quercetin] |  |  |  | % inhibition CYP2C8 (CYP2C8): 95%
31 | CNC(=C[N+](=O)[O-])NCCSCc1ccc(CN(C)C)o1 [Ranitidine] |  |  |  | apparent permeability (Papp) mean A → B (Caco-2 cells; 10 μM, 2 h): 0.45 10^−6 cm s^−1; apparent permeability (Papp) mean B → A (Caco-2 cells; 10 μM, 2 h): 1.2 10^−6 cm s^−1; efflux ratio (Caco-2 cells; Papp (B→A)/Papp (A→B)): 2.7
32 | CC(=O)CC(c1ccccc1)c1c(O)c2ccccc2oc1=O (stereo not drawn) [Warfarin, reference compound] |  |  |  | % compound remaining at 4 h [7]: 94%; recovery at 4 h, 5 μM (in vitro): 100%
33 | acriflavine |  |  |  | bacterial growth, % of control (B. subtilis; single agent, 500 μM NOS inhibitor or 800 μM ACR): 23%

From patent US10759791B2, “Mammalian and bacterial nitric oxide synthase inhibitors” (Northwestern University, priority 2014, dated 2020)
